Laboratory results: patent publication US9018219B2, “Fused aminodihydropyrimidine derivative” (Shionogi & Co., Ltd., priority 2010, dated 2015)
pIC50: −log10 of the molar value.

Legend:
[1] = test system: Neuroblastoma SH-SY5Y cells (SH/APPwt) with human wild-type β-APP excessively expressed; experiment: Measurement of β-amyloid (Aβ) production inhibiting effect in cell; assay type: cell-based; conditions: 24 hours incubation, Amyloid β 1-40 HTRF in culture supernatant, read-out: IC50 (amount needed to inhibit Aβ production by 50%)
Protocol: Neuroblastoma SH-SY5Y cells (SH/APPwt) with human wild-type β-APP excessively expressed therein were prepared at 8×10^5 cells/mL, and 150 μl portions thereof were inoculated into each well of a 96-well culture plate (Falcon). The cells were cultured for 2 hours at 37° C. in a 5% gaseous carbon dioxide incubator. Then, a solution which have been preliminarily prepared by adding and suspending the compound of the present invention (DMSO (dimethyl sulfoxide) solution) so as to be 2 μl/50 μl medium was added to the cell sap. Namely, the final DMSO concentration was 1%, and the amount of the cell culture was 200 μl. After the incubation was performed for 24 hours from the addition of the test compound, 100 μl of the culture supernatant was collected from each fraction. The amount of the Aβ in each fraction was measured.
The Aβ amount was measured as follows. 10 μl of a homogeneous time resolved fluorescence (HTRF) measurement reagent (Amyloid β 1-40 peptide; IBA Molecular Holding, S.A.) and 10 μl of the culture supernatant were put into a 384-well half area microplate (black microplate, Costar) and mixed with each other, and then left standing overnight at 4° C. while the light was shielded. Then, the fluorescence intensity (excitation wavelength: 337 nm, measurement wavelength: 620 nm and 665 nm) was measured with Wallac 1420 multilabel counter (Perkin Elmer life sciences). The Aβ amount was determined from the count rate at each measurement wavelength (10000×Count 665/Count 620), and the amount needed to inhibit Aβ production by 50% (IC50) was calculated from at least six different dosages.

[2] = target: T1, CYP1A2 (Homo sapiens, UniProt P05177); experiment: CYP inhibition test (CYP1A2); assay type: in vitro ADME; conditions: pooled human hepatic microsome 0.2 mg protein/mL, 15 minutes, 37° C.; read-out: IC50 CYP1A2 (7-ethoxyresorufin O-deethylation)
T1 construct: enzyme, pooled human hepatic microsome 0.2 mg protein/mL; from tissue
T1 sequence (P05177 1-516): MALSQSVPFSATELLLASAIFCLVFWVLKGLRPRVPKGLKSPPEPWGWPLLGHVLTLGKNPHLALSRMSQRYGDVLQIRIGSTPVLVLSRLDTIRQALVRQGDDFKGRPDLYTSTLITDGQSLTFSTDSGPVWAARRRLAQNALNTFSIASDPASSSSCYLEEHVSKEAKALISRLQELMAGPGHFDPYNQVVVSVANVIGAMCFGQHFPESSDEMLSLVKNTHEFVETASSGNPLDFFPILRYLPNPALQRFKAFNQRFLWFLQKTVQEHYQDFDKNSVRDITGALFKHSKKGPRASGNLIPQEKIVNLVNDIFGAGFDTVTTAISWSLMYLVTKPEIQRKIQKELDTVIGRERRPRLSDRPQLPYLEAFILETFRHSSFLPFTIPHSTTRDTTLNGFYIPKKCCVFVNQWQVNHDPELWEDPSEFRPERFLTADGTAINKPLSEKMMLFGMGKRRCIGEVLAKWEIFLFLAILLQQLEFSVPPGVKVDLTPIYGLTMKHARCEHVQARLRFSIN
From the text: (§1) Using commercially available pooled human hepatic microsome, and employing, as markers, 7-ethoxyresorufin O-deethylation (CYP1A2), tolbutamide methyl-hydroxylation (CYP2C9), mephenyloin 4′-hydroxylation (CYP2C19), dextromethorphan O-demethylation (CYP2D6), and terfenedine hydroxylation (CYP3A4) as typical substrate metabolism reactions of human main five CYP enzyme forms (CYP1A2, 2C9, 2C19, 2D6, 3A4), an inhibitory degree of each metabolite production amount by a compound of the present invention was assessed. […] After the centrifugation at 3000 rpm for 15 minutes, resorufin (CYP1A2 metabolite) in the supernatant was quantified by a multi-label counter and hydroxytolbutamide (CYP2C9 metabolite), 4′-hydroxymephenyloin (CYP2C19 metabolite), dextrorphan (CYP2D6 metabolite), and terfenadine alcohol metabolite (CYP3A4 metabolite) were quantified by LC/MS/MS. Addition of only DMSO being a solvent dissolving a compound to a reaction system was adopted as a control (100%), remaining activity (%) was calculated and IC50 was calculated by reverse presumption by a logistic model using a concentration and an inhibition rate.

[3] = target: T2, CYP2C9 (Homo sapiens, UniProt P11712); experiment: CYP inhibition test (CYP2C9); assay type: in vitro ADME; conditions: pooled human hepatic microsome 0.2 mg protein/mL, 15 minutes, 37° C.; read-out: IC50 CYP2C9 (tolbutamide methyl-hydroxylation)
T2 construct: enzyme, pooled human hepatic microsome 0.2 mg protein/mL; from tissue
From the text: as §1

[4] = target: T3, CYP2C19 (Homo sapiens, UniProt P33261); experiment: CYP inhibition test (CYP2C19); assay type: in vitro ADME; conditions: pooled human hepatic microsome 0.2 mg protein/mL, 15 minutes, 37° C.; read-out: IC50 CYP2C19 (mephenyloin 4′-hydroxylation)
T3 construct: enzyme, pooled human hepatic microsome 0.2 mg protein/mL; from tissue
From the text: as §1

[5] = target: T4, CYP2D6 (Homo sapiens, UniProt P10635); experiment: CYP inhibition test (CYP2D6); assay type: in vitro ADME; conditions: pooled human hepatic microsome 0.2 mg protein/mL, 15 minutes, 37° C.; read-out: IC50 CYP2D6 (dextromethorphan O-demethylation)
T4 construct: enzyme, pooled human hepatic microsome 0.2 mg protein/mL; from tissue
From the text: as §1

T3 sequence (P33261 whole entry): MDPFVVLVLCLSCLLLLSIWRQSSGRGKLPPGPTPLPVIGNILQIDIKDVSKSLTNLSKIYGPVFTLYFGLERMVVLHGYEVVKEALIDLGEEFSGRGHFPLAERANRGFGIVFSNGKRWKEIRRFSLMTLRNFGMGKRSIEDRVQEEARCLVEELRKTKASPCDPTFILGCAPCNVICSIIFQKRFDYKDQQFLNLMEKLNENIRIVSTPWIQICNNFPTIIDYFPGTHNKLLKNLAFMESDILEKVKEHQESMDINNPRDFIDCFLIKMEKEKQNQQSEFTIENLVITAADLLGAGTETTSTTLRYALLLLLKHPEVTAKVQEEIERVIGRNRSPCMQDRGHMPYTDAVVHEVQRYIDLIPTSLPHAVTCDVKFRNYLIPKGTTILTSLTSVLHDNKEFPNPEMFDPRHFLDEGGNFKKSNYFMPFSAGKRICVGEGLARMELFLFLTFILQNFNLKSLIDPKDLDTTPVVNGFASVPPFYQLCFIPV
T2 sequence (P11712 whole entry): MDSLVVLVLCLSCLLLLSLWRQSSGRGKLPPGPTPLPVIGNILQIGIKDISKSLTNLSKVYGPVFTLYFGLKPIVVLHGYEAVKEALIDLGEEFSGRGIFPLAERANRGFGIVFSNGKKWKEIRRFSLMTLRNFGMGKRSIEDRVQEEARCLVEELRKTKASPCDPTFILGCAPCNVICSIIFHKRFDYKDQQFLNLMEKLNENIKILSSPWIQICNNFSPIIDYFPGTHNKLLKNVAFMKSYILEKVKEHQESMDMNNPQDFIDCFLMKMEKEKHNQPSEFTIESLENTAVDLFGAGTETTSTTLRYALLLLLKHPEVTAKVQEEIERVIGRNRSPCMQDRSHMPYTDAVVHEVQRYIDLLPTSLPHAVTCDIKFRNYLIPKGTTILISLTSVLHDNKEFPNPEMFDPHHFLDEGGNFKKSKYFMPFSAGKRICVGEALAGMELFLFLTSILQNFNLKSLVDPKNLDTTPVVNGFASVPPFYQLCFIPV
T4 sequence (P10635 whole entry): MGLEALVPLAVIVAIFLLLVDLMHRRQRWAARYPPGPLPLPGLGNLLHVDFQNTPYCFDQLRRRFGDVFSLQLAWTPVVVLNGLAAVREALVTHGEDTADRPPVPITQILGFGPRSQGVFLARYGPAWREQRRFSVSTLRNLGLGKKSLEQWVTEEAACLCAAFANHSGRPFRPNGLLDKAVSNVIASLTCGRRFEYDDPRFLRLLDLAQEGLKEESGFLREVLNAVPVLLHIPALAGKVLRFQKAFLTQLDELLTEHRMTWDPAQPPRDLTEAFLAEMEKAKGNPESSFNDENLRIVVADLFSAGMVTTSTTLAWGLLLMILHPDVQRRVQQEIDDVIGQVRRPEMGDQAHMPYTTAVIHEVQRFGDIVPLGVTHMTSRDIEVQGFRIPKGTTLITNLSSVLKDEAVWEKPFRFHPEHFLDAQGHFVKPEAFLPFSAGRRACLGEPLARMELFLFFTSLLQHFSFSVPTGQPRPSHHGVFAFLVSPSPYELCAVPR

Question: How did the pIC50 [1] turn out when `C[C@@]1(c2cc(-c3cccnc3F)ccc2F)Cc2nccn2C(N)=N1` [Compound I-2] was run?
Answer: ≥ 6.00

Question: What about the pIC50 [2] of the same compound?
Answer: < 4.70

Question: What about the pIC50 [3] of the same compound?
Answer: < 4.70

Question: And the pIC50 [4]?
Answer: < 4.70

Question: What about the pIC50 [5] of the same compound?
Answer: < 4.70
